Laboratory results from patent US11045559B2, “Reactive fluorogenic compound and nanocomposite for sensing hydrogen sulfide comprising the same” (KOREA INSTITUTE OF SCIENCE AND TECHNOLOGY, priority 2017, dated 2021).

Assay: Fluorescence response and chemoselectivity of ABR in organic media
From the text: Specifically, in order to devise a H2S-responsive fluorogenic molecular probe, the present inventors have adopted a reaction strategy based on the chemoselective reduction of aryl azides to amines, which is triggered through nucleophilic attack by a hydrosulfide anion (HS^−), which is the main active form of H2S under physiological conditions. In the probe design, the 4-azidobenzyl group was selected as a self-immolative aryl azide linker, and it was linked to a fluorescent emitter, resorufin, at its 7-hydroxy position. Since the 7-hydroxy substituent is known to efficiently quench the fluorescence of resorufin, the designed molecular probe, azidobenzylresorufin (ABR), is anticipated to be nonfluorescent and able to undergo self-immolative cleavage upon reaction with HS^−, to release a 1,6-elimination product (azaquinone methide) and resorufin with fluorescence recovery. […] Along the resulting fluorescence spectrum, the ^1H-NMR analysis confirmed that the fluorescent product is resorufin recovered through the self-immolative release from ABR after reduction by H2S (FIG. 3).

For `[N-]=[N+]=Nc1ccc(COc2ccc3nc4ccc(=O)cc-4oc3c2)cc1` [ABR, 7-(4-azidobenzyloxy)-3H-phenoxazin-3-one], the “fluorescence response toward H2S” value (NaHS present vs absent, FIG. 2a) was “fluorescence turn-on response toward H2S” and the “chemoselectivity in spectroscopic response” value (reactive sulfur, oxygen, nitrogen species 100 μM (GSH 1 mM) in acetonitrile, FIG. 2b) was “responded only to H2S”.
